From patent US20220295782A1, “METHOD FOR PRODUCING FROZEN BODY OF THREE-DIMENSIONAL TISSUE AGGREGATE OF RETINAL PIGMENT EPITHELIAL CELLS” (NICHIREI BIOSCIENCE INC., priority 2019, published 2022) come the findings set out here.

Like-named read-outs stand apart in the source and are kept apart here.

The series has as its system RPE cells. The protocol: RPE cells (manufactured by Lonza K.K., 00194987) were seeded on a 96-well plate (Falcon, 353072) at 3.3×10^4 cells/well, and cultured in a maintenance medium (350 mL of DMEM (Sigma, D6046), 150 mL of F12 HAM (Sigma, N6658), 10 mL of B27 (Invitrogen, 17504-044), 5 mL of 200 mM L-glutamine (Sigma, G7513), 10 ng/mL of bFGF (Wako, 060-04543), […] of SB431542 hydrate (Sigma, S4317)) until the cells reached confluent. The cultured cells were washed with PBS(−) at room temperature, and then exposed to a pretreatment solution for 10 minutes or 30 minutes.
As the pretreatment solutions, solutions having EG concentrations of 10 (v/v) %, 12.5 (v/v) %, 15 (v/v) %, 17.5 (v/v) % and 20 (v/v) % were used. As the solvent of the pretreatment solution, a Dulbecco's modified Eagle's medium (DMEM) supplemented with 2 mM L-glutamine or PBS(−) was used.

For the molecule `OCCO` [EG, ethylene glycol], the “initial toxicity (metabolic activity of cells, MTS assay)” value (0 hours of culture time, EG 10-20 (v/v) % in DMEM supplemented with 2 mM L-glutamine, exposure 10 minutes) is listed as “increased in a concentration-dependent manner from the EG concentration of 12.5 (v/v) %”. Besides, where the note is “30-minute exposure versus 10-minute exposure”, the “time to recovery of metabolic activity” value was “longer time to recovery is required”. The “cytotoxicity (MTS assay)” value is “same tendency of cytotoxicity as in the results of FIG. 1” (30 minutes of exposure time to the pretreatment solution) and “the same tendency as when the DMEM medium supplemented with glutamine was used” (PBS(-) used as the solvent). Also, for the setting “up to EG concentration of 17.5 (v/v) %, DMEM with glutamine, exposure 10 minutes”, the “culture time in which recovery of metabolic activity is possible” value is reported as “about 24 hours”.
